{"source": "patent US11666567B2", "about": "“Bromocriptine formulations” (VeroScience LLC, priority 2012, dated 2023)", "test": "Volume-based particle size distribution of bromocriptine mesylate by laser diffractometry (Sympatec HELOS)", "type": "physicochemical", "details": "Table 13, micronized material used for Example 9 tablets", "from_the_text": "The parameters Dv10, Dv50, Dv90 and Dv99 represent the particle size at the 10%, 50%, 90% and 99% points of the cumulative volume undersize particle size distribution. Thus, a “Dv10” for a material represents a particle size wherein 10% of the volume of the material consists of particles having a particle size equal to the Dv10 value or smaller. A “Dv50” for a material represents a particle size wherein 50% of the volume of the material consists of particles having a particle size equal to the Dv50 value or smaller. A “Dv90” for a material represents a particle size wherein 90% of the volume of the material consists of particles having a particle size equal to the Dv90 value or smaller. A “Dv99” for a material represents a particle size wherein 99% of the volume of the material consists of particles having a particle size equal to the Dv99 value or smaller.\nThe particle size distribution ranges defined herein are based upon measurements made using technology and instruments using laser particle size analysis using the instruments and methods developed by [sequence] GmbH, in particular Sympatec HELOS which can provide particle size analysis of dry and wet samples, i.e., of powders, suspensions, emulsions or sprays and is built to the specifications of ISO 13320 “Particle size analysis—laser diffraction methods.”\nFinally, the possible role of the particle size of bromocriptine mesylate used in the manufacturing process was investigated. The volume-based particle size distribution for the bromocriptine mesylate used in preparing the tablet batches was measured by laser diffractometry using a Sympatec HELOS Laser Diffractometer.\nBulk batches of bromocriptine mesylate were micronized using a jet mill under a nitrogen atmosphere at a controlled temperature of 0° C. The volume particle size distribution was measured using a Sympatec HELOS H1013 Laser Diffractometer.", "data": [{"smiles": "CC(C)C[C@H]1C(=O)N2CCC[C@H]2[C@]2(O)O[C@](NC(=O)[C@@H]3C=C4c5cccc6[nH]c(Br)c(c56)C[C@H]4N(C)C3)(C(C)C)C(=O)N12.CS(=O)(=O)O", "note": "[Micronized Bromocriptine Mesylate]", "values": [{"measurement": "% < 1 μm", "value": 9, "unit": "%"}, {"measurement": "% < 10 μm", "value": 98, "unit": "%"}, {"measurement": "% < 15 μm", "value": 100, "unit": "%"}]}]}
